Assay results as given in BindingDB's records for doi:10.1021/acs.jmedchem.9b00359 (Shandong University, 2019).

Experiment: Inhibition of HIV1 reverse transcriptase p66/p51 K103N/Y181C mutant infected in human MT2 cells assessed as reduction in viral infection incubated for 5 days

Row | SMILES | EC50
1 | Cc1c(Oc2ccccc2OCCn2ccc(=O)[nH]c2=O)cc(N(C)C(=O)CF)c2ccc(C#N)cc12 | 15 µM
2 | C=CC(=O)N(C)c1cc(Oc2ccccc2OCCn2ccc(=O)[nH]c2=O)c(C)c2cc(C#N)ccc12 | 0.5 µM
3 | C=CC(=O)Nc1cc(Oc2ccccc2OCCn2ccc(=O)[nH]c2=O)c(C)c2cc(C#N)ccc12 | > 12 µM
